Laboratory results reported in ChEMBL document CHEMBL4251641, “Biotin conjugated organic molecules and proteins for cancer therapy: A review” (Eur J Med Chem, 2018).
pEC50, pIC50: −log10 of the molar value. Where a SMILES comes first, the peptide text is derived from it. Bridges are numbered along the chain shown (N, C = ends).

Key:
[1] = Selectivity ratio of IC50 for mouse L1210 cells to IC50 for mouse L1210FR cells; format: functional
[2] = tested on: WI-38; assay: Cytotoxicity against human WI38 cells assessed as cell growth inhibition after 72 hrs by MTT assay; format: cell-based; conditions: WI-38, 72 h
[3] = Cytotoxicity against mouse L1210FR cells assessed as cell growth inhibition after 72 hrs by MTT assay; format: functional, cell-based
[4] = tested on: L1210; assay: Cytotoxicity against mouse L1210 cells assessed as cell growth inhibition after 72 hrs by MTT assay; format: functional, cell-based; conditions: L1210, 72 h
[5] = Selectivity ratio of IC50 for human WI38 cells to IC50 for mouse L1210FR cells; format: toxicity; conditions: WI38 cells and L1210FR cells, read-out: Ratio IC50
[6] = Inhibition of high-voltage activated calcium channel (unknown origin) expressed in NG108-15 cells at -90 mV holding potential by whole cell patch clamp assay; format: cell-based; conditions: Homo sapiens
[7] = Half life in human plasma; format: ADME, cell-free

With `CC(=O)O[C@@]12CO[C@@H]1C[C@H](O)[C@@]1(C)C(=O)[C@H](OC(=O)C3CC3)C3=C(C)[C@@H](OC(=O)[C@H](OC(=O)Cc4ccccc4SSCCC(=O)NNC(=O)CCCC[C@@H]4SC[C@@H]5NC(=O)N[C@@H]54)[C@H](C=C(C)C)NC(=O)OC(C)(C)C)C[C@@](O)([C@@H](OC(=O)c4ccccc4)[C@H]21)C3(C)C` as the compound, how does the “Ratio IC50” value [1] read?
The value was 59.

And the pIC50 [2]?
Its pIC50 is 6.24.

What about the pIC50 [3] of the same compound?
Its pIC50 is 8.06.

And the pIC50 [4]?
The pIC50 was 6.28.

And the selectivity ratio [5]?
Its selectivity ratio is 65.

With `CC(C)C[C@H](NC(=O)[C@H](CCCCN)NC(=O)[C@H](Cc1c[nH]c2ccccc12)NC(=O)[C@H](CCCCN)NC(=O)[C@@H]1CSSC[C@@H]2NC(=O)[C@H](CCC(=O)O)NC(=O)[C@H](CC(N)=O)NC(=O)[C@H](CCCCN)NC(=O)CNC(=O)[C@@H]3CCCN3C(=O)[C@H]([C@@H](C)O)NC(=O)[C@@H]3CSSC[C@H](NC(=O)[C@H](C(C)C)NC(=O)[C@H](CCCNC(=N)N)NC(=O)[C@H](CC(N)=O)NC(=O)[C@@H]4CCCN4C(=O)[C@H](CSSC[C@H](NC(=O)[C@H](C)N)C(=O)N[C@@H](CCCCN)C(=O)NCC(=O)N[C@@H](C(C)C)C(=O)N[C@@H](Cc4ccccc4)C(=O)N[C@@H](CC(=O)O)C(=O)N[C@@H](C)C(=O)N3)NC2=O)C(=O)N[C@@H](CO)C(=O)N[C@@H](CC(=O)O)C(=O)N[C@@H](CCCCN)C(=O)N[C@@H](Cc2cnc[nH]2)C(=O)N[C@@H](CCCCN)C(=O)N[C@@H](Cc2c[nH]c3ccccc23)C(=O)N1)C(=O)O` (H-ACKGVFDACTPGKNECCPNRVCSDKHKWCKWKL-OH; disulfide 2-17, 9-22, 16-29) as the compound, how does the pEC50 [6] read?
The pEC50 was 7.00.

Which half-life [7] does the source give for `Nc1ccn([C@@H]2O[C@H](CO)[C@@H](O)C2(F)F)c(=O)n1` [GEMCITABINE] here?
The half-life was 9 to 13 min.
